One assay addresses T1, PARS (Mus musculus, UniProt P11103).
T1 construct: endogenous in cells; host or cells: RAW mouse macrophages
Description: PARS activation in peroxynitrite-stimulated cultured RAW macrophages (whole-cell assay, 3H-NAD+ incorporation). The format is cell-based. The settings on record: cultured murine macrophages; for % PARS inhibition at 100 nM / inhibition at 0.1 µM: 100 nM. On the procedure:
RAW mouse macrophages were cultured in DMEM medium with high glucose and supplemented with 10% fetal bovine serum. Cells were used at 80% confluence in 12-well plates. Cells were pretreated with various concentrations (100 nM-1 μM) of an Isoquinoline Derivative for 10 min. Peroxynitrite, a prototypical oxidant which induces DNA single strand breakage, was used to induce PARS activation. Peroxynitrite was diluted in phosphate buffered saline (PBS) (pH 11.0) and added to the cells in a bolus of 50 μl. Cells were then incubated for 20 min. […] Following an incubation in assay buffer, (10 min at 37° C.), PARS activity was measured as follows: 200 μl ice cold 50% w/v TCA was added and the samples were incubated for 4 hours at 4° C. Samples were then spun (10 min@10,000 g) and pellets washed twice with ice cold 5% w/v TCA and solubilized overnight in 250 μl 2% w/v SDS/0.1 N NaOH at 37° C. The contents of the tubes were added to 6.5 ml ScintiSafe Plus scintillation liquid (Fisher Scientific) and radioactivity was determined using a liquid scintillation counter (Wallac, Gaithersburg, Md.).

The next assay relates to mice. Description: Single high-dose streptozotocin model of diabetes. The format is in vivo. As to conditions: 3 mg/kg i.p.; STZ 160 mg/kg; blood sugar 3 days later; STZ + Vehicle 320 ± 13, basal 153 ± 21. On the procedure: PARS inhibitors and PARS deficiency are known to reduce the development of diabetes and the incidence of diabetic complications (Mabley et al., Br J Pharmacol. 2001, 133(6):909-9; and Soriano et al., Nat Med. 2001, 7(1):108-13). […] Briefly, 160 mg/kg streptozotocin was injected to mice treated with vehicle or with illustrative Isoquinoline Derivatives intraperitoneally (3 mg/kg) and 3 days later blood sugar levels were determined using a blood glucose meter.

The subject of another assay is rat. Description: Rat model of middle cerebral artery occlusion/reperfusion. The settings on record: 3 mg/kg/day i.p. The format is in vivo. The procedure:
Occlusion lasted for 2 hours, followed by reperfusion for 24 hours. Infarct size was quantified with tetrazolium staining. […] There was an approximately 80% reduction in the degree of cortical necrosis and neuronal death in the animals administered with 8l, when compared to vehicle-treated controls.

In the next assay the test system is TNF-alpha. Description: LPS induced TNF production in mice in vivo. The settings on record: LPS 10 mg/kg i.p., plasma at 90 minutes, vehicle 6994.0.
For the next assay, the target named is T2, purified PARS enzyme (Homo sapiens, UniProt P09874).
T2 construct: purchased Trevigen, Gaithersburg, Md
T2 sequence (P09874 whole entry): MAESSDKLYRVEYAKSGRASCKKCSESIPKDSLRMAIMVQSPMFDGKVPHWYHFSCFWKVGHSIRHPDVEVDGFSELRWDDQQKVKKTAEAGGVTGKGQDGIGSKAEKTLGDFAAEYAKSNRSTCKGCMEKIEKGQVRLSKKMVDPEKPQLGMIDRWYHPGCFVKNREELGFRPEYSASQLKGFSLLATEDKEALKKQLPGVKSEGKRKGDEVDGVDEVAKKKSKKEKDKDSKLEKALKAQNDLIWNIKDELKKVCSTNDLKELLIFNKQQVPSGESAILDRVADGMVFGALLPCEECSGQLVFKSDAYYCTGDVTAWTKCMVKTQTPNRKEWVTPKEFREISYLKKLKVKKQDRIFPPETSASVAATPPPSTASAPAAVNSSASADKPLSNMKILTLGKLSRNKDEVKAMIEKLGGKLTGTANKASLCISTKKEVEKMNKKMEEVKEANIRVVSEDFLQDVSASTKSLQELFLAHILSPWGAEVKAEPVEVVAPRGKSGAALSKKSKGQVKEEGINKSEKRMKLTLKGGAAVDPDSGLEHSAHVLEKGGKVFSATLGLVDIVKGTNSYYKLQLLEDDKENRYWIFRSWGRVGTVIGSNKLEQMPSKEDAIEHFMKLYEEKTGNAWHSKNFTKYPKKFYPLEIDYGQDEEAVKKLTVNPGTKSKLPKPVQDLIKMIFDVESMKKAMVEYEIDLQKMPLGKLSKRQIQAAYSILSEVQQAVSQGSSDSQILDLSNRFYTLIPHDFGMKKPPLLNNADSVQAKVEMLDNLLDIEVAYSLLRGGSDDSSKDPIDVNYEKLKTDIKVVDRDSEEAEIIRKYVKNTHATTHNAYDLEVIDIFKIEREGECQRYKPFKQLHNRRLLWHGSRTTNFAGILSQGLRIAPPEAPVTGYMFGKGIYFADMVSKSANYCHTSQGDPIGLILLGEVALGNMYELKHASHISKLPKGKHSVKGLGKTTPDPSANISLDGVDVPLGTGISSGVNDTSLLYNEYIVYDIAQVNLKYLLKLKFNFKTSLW
Description: Purified PARS enzyme inhibition assay (Trevigen kit, 96 well ELISA plates). The format is biochemical. The settings on record: starred values: tested in purified enzyme assay. The procedure: The assay was performed in 96 well ELISA plates according to instructions provided with a commercially available PARS inhibition assay kit (Trevigen, Gaithersburg, Md.). Briefly, wells were coated with 1 mg/mL histone (50 μl/well) at 4° C. overnight. Plates were then washed four times with PBS and then blocked by adding 50 μl Strep-Diluent (supplied with the kit). After incubation (1 h, room temperature), the plates were washed four times with PBS. Appropriate dilutions of PARS inhibitors were combined with 2×PARS cocktail (1.95 mM NAD^+, 50 μM biotinylated NAD^+ in 50 mM TRIS pH 8.0, 25 mM MgCl2) and high specific activity PARS enzyme (both were supplied with the kit) in a volume of 50 μl. The reaction was allowed to proceed for 30 min at room temperature. After 4 washes in PBS, incorporated biotin was detected by peroxidase-conjugated streptavidin (1:500 dilution) and TACS Sapphire substrate.

Marks after values point to notes of the source that are not given here.

Broadly, the inhibition is the share of the control response that was lost under treatment. The low end stands for a weak effect, the high end for a strong effect.

T1 sequence (P11103 whole entry): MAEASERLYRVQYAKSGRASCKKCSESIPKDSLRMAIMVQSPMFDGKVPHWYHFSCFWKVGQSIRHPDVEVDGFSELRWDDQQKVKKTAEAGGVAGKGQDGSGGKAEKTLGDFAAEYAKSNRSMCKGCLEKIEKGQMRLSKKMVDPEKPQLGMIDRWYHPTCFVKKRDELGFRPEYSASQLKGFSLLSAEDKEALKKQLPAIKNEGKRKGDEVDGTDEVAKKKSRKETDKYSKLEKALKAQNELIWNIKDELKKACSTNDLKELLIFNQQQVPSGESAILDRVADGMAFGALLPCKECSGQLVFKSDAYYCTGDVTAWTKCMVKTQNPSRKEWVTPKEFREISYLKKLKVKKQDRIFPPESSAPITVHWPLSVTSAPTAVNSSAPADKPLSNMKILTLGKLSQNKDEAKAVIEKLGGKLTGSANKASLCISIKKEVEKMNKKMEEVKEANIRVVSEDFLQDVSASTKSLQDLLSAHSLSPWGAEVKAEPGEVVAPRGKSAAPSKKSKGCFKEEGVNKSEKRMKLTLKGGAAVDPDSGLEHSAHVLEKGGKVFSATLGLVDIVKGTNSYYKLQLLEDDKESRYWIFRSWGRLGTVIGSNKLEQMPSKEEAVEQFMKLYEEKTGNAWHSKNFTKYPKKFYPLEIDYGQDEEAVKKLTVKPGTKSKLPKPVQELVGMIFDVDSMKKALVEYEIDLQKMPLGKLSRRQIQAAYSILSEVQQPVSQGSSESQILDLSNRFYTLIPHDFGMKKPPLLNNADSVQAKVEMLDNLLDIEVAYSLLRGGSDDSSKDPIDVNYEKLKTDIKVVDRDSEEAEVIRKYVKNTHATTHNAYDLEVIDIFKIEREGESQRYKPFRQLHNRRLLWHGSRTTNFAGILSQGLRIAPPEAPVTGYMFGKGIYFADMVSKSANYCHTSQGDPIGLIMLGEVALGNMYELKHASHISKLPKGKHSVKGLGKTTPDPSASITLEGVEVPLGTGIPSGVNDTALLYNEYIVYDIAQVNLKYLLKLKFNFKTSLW

As for `O=c1[nH]c2c(c3ccccc13)C(N1CCNCC1)c1ccccc1-2` (racemic) [Compound 5c, (±) 11-piperizin-5,6-dihydro-5-oxo-11H-indeno[1,2-c]isoquinoline], at PARS, the “% PARS inhibition at 100 nM” value was determined as 0% and the “% PARS inhibition at 1 μM” value is reported as 24%.

For the molecule `CN1CCN(C2c3ccccc3-c3[nH]c(=O)c4ccccc4c32)CC1` (racemic) [Compound 5d, (±) 11-(N-methylpiperazin)-5,6-dihydro-5-oxo-11H-indeno[1,2-c]isoquinoline], the “% PARS inhibition at 1 μM” value at PARS turned out to be 48%. Turning to `O=c1[nH]c2c(c3ccccc13)Cc1cc(S(=O)(=O)N3CCC[C@H]3CO)ccc1-2` [Compound 8e, 9-[N-(2-hydroxyprolinyl)sulphonyl]-5,6-dihydro-5-oxo-11H-indeno[1,2-c]isoquinoline], at PARS (300 nM), the “% PARS inhibition at 300 nM” value came out at 68%.

With `O=c1[nH]c2c(c3ccccc13)Cc1cc(S(=O)(=O)NCCN3CCOCC3)ccc1-2` [Compound 8j, 9-[N-(2-[morpholino-4-yl]ethyl)-aminosulphonyl]-5,6-dihydro-5-oxo-11H-indeno[1,2-c]isoquinoline], the Glucose in the assay on mice stood at 253 ± 24. On to `O=c1[nH]c2c(c3ccccc13)Cc1cc(S(=O)(=O)NCCCN3CCOCC3)ccc1-2` [Compound 8l, 9-[N-(3-[morpholino-4-yl]propyl)-aminosulphonyl]-5,6-dihydro-5-oxo-11H-indeno-[1,2-c]isoquinoline], for which the functional benefit result in the assay with rat is on record as “neurological improvements”. On to `CCN(CC)CCN(CCN(CC)CC)S(=O)(=O)c1ccc2c(c1)Cc1c-2[nH]c(=O)c2ccccc12` [Compound 8p, 9-[N,N-di-(2-[N,N-diethylamino]ethyl)-aminosulphonyl]-5,6-dihydro-5-oxo-11H-indeno-[1,2-c]isoquinoline], for which the TNF in the assay with TNF-alpha (0.1 mg/kg i.p. pretreatment) is 4470 pg/mL; in the assay with TNF-alpha (1.0 mg/kg i.p. pretreatment), 5090 pg/mL. For the same molecule, in the assay on mice, the Glucose is 264 ± 24 mg/dL. The molecule further displayed an inhibition at 0.1 µM at PARS of 27%. In addition, on PARS (300 nM), 0.3 µM produced 45% inhibition.

The molecule `CN(C)CCN(CCN(C)C)S(=O)(=O)c1ccc2c(c1)Cc1c-2[nH]c(=O)c2ccccc12` [Compound 8q, 9-[N,N-di-(2-[N,N-dimethylamino]ethyl)-aminosulphonyl]-5,6-dihydro-5-oxo-11H-indeno-[1,2-c]isoquinoline] showed an inhibition at 0.1 µM against PARS of 20%. Besides, at PARS (300 nM), the inhibition at 0.3 µM was found to be 28%.

At PARS, `O=c1[nH]c2c3ccccc3oc2c2ccccc12` [Compound 22a] came in with an inhibition at 0.1 µM of 51% and an inhibition at 1 µM of 81%. On PARS, `COc1ccc2c(c1)oc1c3ccccc3c(=O)[nH]c21` [Compound 22c] had an inhibition at 0.1 µM of 62% and an inhibition at 1 µM of 83%. At PARS (300 nM), this molecule came in with an inhibition at 0.3 µM of 66%.

Regarding `COc1cccc2c1oc1c3ccccc3c(=O)[nH]c21` [Compound 22d], at 1 µM the inhibition on purified PARS enzyme (1 μM) was 13%. On PARS, `Cc1ccc2oc3c4ccccc4c(=O)[nH]c3c2c1` [Compound 22e] returned an inhibition at 0.1 µM of 38% and an inhibition at 1 µM of 53%. At PARS (300 nM), this molecule yielded an inhibition at 0.3 µM of 56%. With `O=C(O)c1ccc2oc3c4ccccc4c(=O)[nH]c3c2c1` [Compound 22f], on PARS (300 nM), 0.3 µM produced 23% inhibition. This molecule showed an inhibition at 1 µM at PARS of 27%. On PARS (300 nM), `O=C(O)c1ccc2c(c1)oc1c3ccccc3c(=O)[nH]c21` [Compound 22g] displayed an inhibition at 0.3 µM of 23%. At PARS, this molecule returned an inhibition at 1 µM of 27%.

On PARS, `O=c1[nH]c2c3cccc(O)c3oc2c2ccccc12` [Compound 23c] registered an inhibition at 0.1 µM of 63% and an inhibition at 1 µM of 63%. On PARS (300 nM), this molecule registered an inhibition at 0.3 µM of 66%. Turning to `O=C(O)CCNC(=O)c1ccc2oc3c4ccccc4c(=O)[nH]c3c2c1` [Compound 26b], the “% PARS inhibition at 100 nM” value at purified PARS enzyme is reported as 21* %.

For the molecule `O=c1[nH]c2c3ccccc3[nH]c2c2ccccc12` [Compound 31, 6H,11H-Indole-[3,2-C]-Isoquinoline-5-one], the “% PARS inhibition at 100 nM” value at PARS came to 18%. As to `O=c1[nH]c2c3ccc(S(=O)(=O)O)cc3n(S(=O)(=O)O)c2c2ccccc12` [Compound 34], the “% PARS inhibition at 100 nM” value on purified PARS enzyme is listed as 14* %. Also, the “% PARS inhibition at 300 nM” value at purified PARS enzyme (300 nM) is 33* %. As to `NS(=O)(=O)c1ccc2c3[nH]c(=O)c4ccccc4c3n(S(N)(=O)=O)c2c1` [Compound 35a, 6H,11H-Indole-[3,2-C]-Isoquinoline-5-one-9,11-disulfonamide], at PARS, the “% PARS inhibition at 100 nM” value was 14% and the “% PARS inhibition at 1 μM” value is 75%.

Values taken from patent publication US6956035B2, “Isoquinoline derivatives and methods of use thereof” (Inotek Pharmaceuticals Corporation, priority 2001, dated 2005).
